Consider one compound from paper PMC6990966, “Treatment of Porphyromonas gulae infection and downstream pathology in the aged dog by lysine‐gingipain inhibitor COR388” (Pharmacology Research & Perspectives, 2020).

For data set [1], the system named is P. gulae. In words: qPCR detection of P. gulae load in oral samples of naturally infected aged dogs. The format is in vivo, Beagle dogs. Here is the method:
(§1) Aged Beagle dogs of both sexes ranging from 8 to 15 years of age, in generally good health and located in the Vivocore Inc dog colony, were utilized in this study. All procedures were reviewed and approved by Vivocore's Institutional Animal Care and Use Committee (IACUC) and were performed in accordance with the principles of the Animal for Research Act of Ontario and the guidelines of Canadian Council on Animal Care (CCAC). Structure‐based design was used to develop a library of gingipain inhibitors, which were tested on purified Kgp and RgpB to assess potency and determine inhibition constants. […] In the first study, four dogs were dosed 10 mg kg^−1 q.d. with endpoints assessed after dosing and compared to those taken pre‐dose in individual dogs. […]
Biofluids were evaluated for P. gulae load using a qPCR assay that was developed to specifically detect P. gulae 16S gene with the following primers and probe: Forward primer […], Reverse primer […], and probe […]. […] Saliva was evaluated with either 2 μL neat saliva or purified DNA from 2 μL saliva. Buccal cells were evaluated with either 2 μL neat buccal cell slurry or purified DNA from 2 μL buccal cell slurry. SGP was evaluated with 2 μL from the elution in B‐Per. GCF was evaluated with either purified DNA from 50 μL of B‐Per eluted GCF or neat 2 μL elution.
For orientation: Real-time PCR tracks product formation cycle by cycle.

On the set-up of data set [2]: method as in PMID 30746447. To be noted: mice; cited from earlier work.
Data set [3] concerns Kgp. In words: Kgp activity in GCF of dosed dogs using COR553 activity-based probe. The format is in vivo, Beagle dogs. Here is the method:
(§2) Aged Beagle dogs of both sexes ranging from 8 to 15 years of age, in generally good health and located in the Vivocore Inc dog colony, were utilized in this study. All procedures were reviewed and approved by Vivocore's Institutional Animal Care and Use Committee (IACUC) and were performed in accordance with the principles of the Animal for Research Act of Ontario and the guidelines of Canadian Council on Animal Care (CCAC). Structure‐based design was used to develop a library of gingipain inhibitors, which were tested on purified Kgp and RgpB to assess potency and determine inhibition constants. The detailed chemical synthesis and structure of compounds in the relevant series of lysine‐gingipain inhibitors including COR388 can be found in PCT/2016/0061197. Detailed characterization of COR388 enzyme target binding, potency, and selectivity are previously described.1 Test article administered, COR388 HCl, was a solid powdered material. Dogs were dosed with neat compound hand‐filled in gelatin capsules (size 1, Torpac) orally at the listed doses (free‐base, corrected for salt form). All dogs utilized in studies were positive on previous BANA enzyme (BANAMet LLC, Ann Arbor, MI) testing of oral plaque samples (assay described below). In the first study, four dogs were dosed 10 mg kg^−1 q.d. with endpoints assessed after dosing and compared to those taken pre‐dose in individual dogs. The second dose‐response study was conducted with a randomized, blinded, matched‐group design with 12 dogs. Following baseline sample collections prior to dosing, animals were allocated to four dosing groups, n = 3 dogs per group as follows: vehicle (empty capsule), 0.15, 0.5, and 1.5 mg kg^−1 b.i.d (Q12h). Dosing continued for 28 days (0.15 and 1.5 mg kg^−1) or 90 days (vehicle and 0.5 mg kg^−1). Groups were balanced for age, sex, weight, and baseline BANA test results to the extent possible. Dogs were group housed according to dosing group in compliance with the recommendations of the CACC. Dogs were fed a standard commercial dry diet daily in the evenings with water provided ad libitum but not within 30 minutes of the start of anesthetic procedures.
Gingival Crevicular Fluid: GCF was collected from the gingival pockets at times following dosing ±30 minutes, as indicated. Eight sampling sites were identified per dog and four sites were used per timepoint. Sampling sites were isolated with a cotton roll and air‐dried. Gingival fluid collection strips (Periopaper™, Oraflow) were gently held with tweezers and placed into the pocket until resistance was felt. Strips were held in place for 30 seconds and then processed as described above for SGP isolation. […]

Data set [4] relates to RgpB. As to the kind of experiment: Rgp enzyme activity assay in SGP of dosed dogs. It is filed as in vivo, Beagle dogs. The following applies: oral 10 mg kg^−1 q.d. for 28 days. How it is done: as §1, with “constants. The detailed chemical synthesis and structure of compounds in the relevant series of lysine‐gingipain inhibitors including COR388 can be found in PCT/2016/0061197.” for “constants.”
For the detection of arginine‐gingipain (Rgp) activity, cysteine‐HCl was freshly added to RgpB buffer (100 mmol L^−1 Tris, 200 mmol L^−1 gly‐gly, 5 mmol L^−1 CaCl2) to a final concentration of 10 mmol L^−1 to produce a RgpB working enzyme assay buffer. […] After 50 μL of substrate solution was added, the plate was immediately read at 405 nm for 1 hour with interval of every 1.5 minutes read at 37°C and continuous shaking in Biotek Synergy 2 microplate reader. […]

Data set [5] can be described thus: Plasma pharmacokinetics after single intravenous dose. The format is in vivo, Beagle dogs. To be noted: both sexes, Beagle, dog, single intravenous dose 1 mg kg^−1 in PBS, mean ± SD.
Data set [6] has as its system periodontal disease (pocket depth). In words: Dental assessment of gingival pocket depth. The format is in vivo, Beagle dogs. The following applies: oral 0.5 mg kg^−1 b.i.d., day 90 vs baseline. How it is done: as §2, with “The second dose‐response study was conducted with a randomized, blinded, matched‐group design with 12 dogs. Following baseline sample collections prior to dosing, animals were allocated to four dosing groups, n = 3 dogs per group as follows: vehicle (empty capsule), 0.15, 0.5, and 1.5 mg kg^−1 b.i.d (Q12h). Dosing continued for 28 days (0.15 and 1.5 mg kg^−1) or 90 days (vehicle and 0.5 mg kg^−1). Groups were balanced for age, sex, weight, and baseline BANA test results to the extent possible. Dogs were group housed according to dosing group in compliance with the recommendations of the CACC. Dogs were fed a standard commercial dry diet daily in the evenings with water provided ad libitum but not within 30 minutes of the start of anesthetic procedures.” left out

The subject of data set [7] is P. gingivalis cultures. The following applies: P. gingivalis cultures in vitro; cited from earlier work.
The nature of data set [8]: Plasma pharmacokinetics after oral administration in gelatin capsules. The format is in vivo, Beagle dogs. The following applies: Beagle, dog; for bioavailability: po, 0.5 mg/kg. How it is done: Aged Beagle dogs of both sexes ranging from 8 to 15 years of age, in generally good health and located in the Vivocore Inc dog colony, were utilized in this study. All procedures were reviewed and approved by Vivocore's Institutional Animal Care and Use Committee (IACUC) and were performed in accordance with the principles of the Animal for Research Act of Ontario and the guidelines of Canadian Council on Animal Care (CCAC). […] The detailed chemical synthesis and structure of compounds in the relevant series of lysine-gingipain inhibitors including COR388 can be found in PCT/2016/0061197. Detailed characterization of COR388 enzyme target binding, potency, and selectivity are previously described.1 Test article administered, COR388 HCl, was a solid powdered material. Dogs were dosed with neat compound hand-filled in gelatin capsules (size 1, Torpac) orally at the listed doses (free-base, corrected for salt form). All dogs utilized in studies were positive on previous BANA enzyme (BANAMet LLC, Ann Arbor, MI) testing of oral plaque samples (assay described below). In the first study, four dogs were dosed 10 mg kg^-1 q.d. with endpoints assessed after dosing and compared to those taken pre-dose in individual dogs. The second dose-response study was conducted with a randomized, blinded, matched-group design with 12 dogs. […] Groups were balanced for age, sex, weight, and baseline BANA test results to the extent possible. Dogs were group housed according to dosing group in compliance with the recommendations of the CACC. Dogs were fed a standard commercial dry diet daily in the evenings with water provided ad libitum but not within 30 minutes of the start of anesthetic procedures. For evaluation of pharmacokinetics parameters, approximately 2 mL of blood was collected at the indicated time points following test article administration into K2EDTA tubes and plasma was isolated for bioanalytical determination of plasma concentrations of COR388. A single intravenous dose of COR388 was administered in PBS at a dose of 1 mg kg^-1. Quantitation of COR388 in plasma samples following protein precipitation with mianserin added as an internal standard, was performed from the time points shown using a qualified LC-MS/MS method (AB Sciex 4000 QTrap). Plasma concentration versus time profiles were analyzed to determine pharmacokinetic parameters using noncompartmental methods (Phoenix® WinNonlin® 6.3, Pharsight Certara).

Read-outs that look alike come from different tables or passages of the source.

With `NCCCC[C@H](NC(=O)C1CCCC1)C(=O)COc1c(F)ccc(F)c1F` [COR388], the “mean decrease in baseline P. gulae DNA” value in data set [1] (buccal cells, oral 10 mg kg^−1 once a day, after 14 days of dosing) was greater than 80%. The “P. gulae bacterial load over time compared to vehicle control” value in data set [1] (oral 0.5 mg kg^−1 b.i.d. for 90 days, buccal cells (Figure 5A)) was “statistically significant reduction”. Besides, in data set [2], the brain penetration entry was “brain penetrant”. The “inhibition of baseline Kgp activity” value in data set [3] (oral 0.5 mg kg^−1, after a single dose) was “roughly 50%”; in data set [3] (oral 0.5 mg kg^−1 b.i.d., after 28 days of dosing) it was “near complete inhibition”. The “Kgp activity compared to vehicle control” value in data set [3] (oral 0.5 mg kg^−1 b.i.d. for 90 days) is reported as “statistically significant reduction”. Also, in data set [3] (oral 10 mg kg^−1 q.d., 2 hours after dosing on days 14 and 28), the “active Kgp available for COR553 probe binding” value is on record as “no active sites were available for probe binding”. In data set [4], the “active RgpB in SGP versus baseline day 1” value is given as “reduction”. For the same compound, the half-life in data set [5] (read-out: elimination half-life (converted)) is 3.5 ± 0.6 h; in data set [8] (both sexes, 0.5 mg kg^-1 oral, single oral dose (Figure 2C), mean ± SD, read-out: Apparent t1/2 (converted)), 2.42 ± 0.236 h. Moreover, the clearance (usually a measure of how efficiently the substance is removed, as volume per time) in data set [5] (read-out: systemic clearance (CLS) (converted)) was 35 mL/min/kg. In addition, in data set [5] (read-out: volume distribution (Vss)), the Vd was determined as 5.2 ± 1.3 L/kg. Besides, the “mean average pocket depth, all individual pockets” value in data set [6] (P = .0156) is “reduction”. Further, the “mean average pocket depth, pockets ≥3 mm at baseline or end of study, per dog” value in data set [6] (P = .0332) is “significant reduction”. The “drug resistance on chronic administration” value in data set [7] was “did not lead to drug resistance”. Further, the Cmax (as a rule, the maximum level reached in the sampled fluid or tissue) stood at 2.73 ng/mL in data set [8] (oral 0.15 mg kg^−1 b.i.d. group, single dog with minimal Kgp inhibition, read-out: plasma Cmax of the one dog with lowest exposure); 9.74 ng/mL in data set [8] (both sexes, oral 0.15 mg kg^−1 b.i.d. group, read-out: mean Cmax in dose group); 66.6 ng/mL in data set [8] (both sexes, oral 0.5 mg kg^−1 administered b.i.d. for 6 days, read-out: Cmax). For the same compound, in data set [8] (both sexes, 0.5 mg kg^-1 oral, single oral dose (Figure 2C), mean ± SD), the Tmax (usually the time at which the peak concentration occurs) was determined as 2.17 ± 1.76 h. Also, in data set [8] (both sexes, 12 hours after oral dosing of 0.5 mg kg^−1, read-out: mean trough plasma concentration (Cmin)), the concentration at 12 h amounted to 2.67 ng/mL. For the same compound, the AUC(0-t) in data set [8] (both sexes, oral 0.5 mg kg^−1 administered b.i.d. for 6 days, read-out: AUC0-12 h) is 265 ng·h/mL. Also, the bioavailability in data set [8] (both sexes, 0.5 mg kg^-1 oral, single oral dose (Figure 2C), mean ± SD, read-out: F) turned out to be 105 ± 28.8%; in data set [8] (both sexes, oral doses of 0.5 mg kg^−1 and higher, read-out: bioavailability (%F)), 100%.
